Reference: US12564590B2, “Combinations of menin inhibitors and CYP3A4 inhibitors and methods of use thereof” (Syndax Pharmaceuticals, Inc., priority 2020, dated 2026)

How the values were obtained:
[1] = biological target: T1, MLL1 binding pocket on menin (Homo sapiens, UniProt O00255); assay: binding to the MLL1 binding pocket on menin
T1 sequence (O00255 1-610): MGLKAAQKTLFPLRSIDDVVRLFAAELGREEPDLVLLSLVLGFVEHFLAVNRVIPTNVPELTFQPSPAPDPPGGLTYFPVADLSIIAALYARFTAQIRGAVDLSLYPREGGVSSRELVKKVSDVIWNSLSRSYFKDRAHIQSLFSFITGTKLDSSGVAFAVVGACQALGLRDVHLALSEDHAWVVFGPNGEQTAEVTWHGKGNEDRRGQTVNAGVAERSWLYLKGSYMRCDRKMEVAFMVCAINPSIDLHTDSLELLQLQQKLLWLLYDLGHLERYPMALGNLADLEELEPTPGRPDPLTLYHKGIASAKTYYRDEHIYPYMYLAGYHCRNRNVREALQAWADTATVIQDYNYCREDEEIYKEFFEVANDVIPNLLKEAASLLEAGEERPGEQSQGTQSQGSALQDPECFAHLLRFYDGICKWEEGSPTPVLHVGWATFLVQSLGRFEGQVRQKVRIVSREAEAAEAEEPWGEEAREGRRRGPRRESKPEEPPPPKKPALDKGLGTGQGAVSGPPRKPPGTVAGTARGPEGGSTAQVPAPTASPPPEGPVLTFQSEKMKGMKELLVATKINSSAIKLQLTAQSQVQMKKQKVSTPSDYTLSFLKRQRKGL

[2] = test system: leukemic xenograft models; assay: leukemic xenograft / nonclinical survival models; type: in vivo; conditions: in combination with a CYP3A4 inhibitor; for survival benefit in nonclinical models: oral dosing
[3] = test system: cells harboring MLLr fusions; assay: activity in cells harboring MLLr fusions; type: cell-based
[4] = test system: NPM1c mutant AML patient-derived xenograft models; conditions: orally active; cited from earlier work
NPM1c cells = conditions: leading to growth arrest, terminal differentiation and cell death; cited from earlier work

| SMILES | binding affinity to the MLL1 binding pocket on menin [1] | activity in multiple leukemic xenograft models [2] | survival benefit in nonclinical models [2] | activity across a range of cells harboring MLLr fusions [3] | anti-leukemic activity [4] | effect on HOXA MEIS1 transcription program (NPM1c cells) |
| --- | --- | --- | --- | --- | --- | --- |
| CC(C)N(C(=O)c1cc(F)ccc1Oc1cncnc1N1CC2(CCN(C[C@H]3CC[C@H](NS(C)(=O)=O)CC3)CC2)C1)C(C)C [Formula I, 5-fluoro-N,N-diisopropyl-2-((4-(7-(((1r,4r)-4-(methylsulfonamido)cyclohexyl)methyl)-2,7-diazaspiro[3.5]nonan-2-yl)pyrimidin-5-yl)oxy)benzamide] | high affinity | robust activity | profound survival benefit | displays activity | – | – |
| CCN(C(=O)c1cc(F)ccc1Oc1cncnc1N1CC2(CCN(C[C@H]3CC[C@H](NS(=O)(=O)CC)CC3)CC2)C1)C(C)C [Formula II, N-ethyl-2-((4-(7-(((1r,4r)-4-(ethylsulfonamido)cyclohexyl)methyl)-2,7-diazaspiro[3.5]nonan-2-yl)pyrimidin-5-yl)oxy)-5-fluoro-N-isopropylbenzamide] | high affinity | robust activity | profound survival benefit | displays activity | – | – |
| CNc1nc(NC2CCN(Cc3ccc4c(cc(C#N)n4C[C@H](C)N4CCN(S(C)(=O)=O)CC4)c3C)CC2)c2cc(CC(F)(F)F)sc2n1 [KO-539] | – | – | – | – | robust anti-leukemic activity | – |
| Cc1c(CN2CCC(Nc3ncnc4sc(CC(F)(F)F)cc34)CC2)ccc2c1cc(C#N)n2Cc1cn[nH]c1 [MI-503] | – | – | – | – | – | suppress the HOXA MEIS1 transcription program |
